Assay: xn = mol fraction of the nth substance listed
Conditions: 101.3 kPa, Liquid; for speed of sound: Sing-around technique in a fixed-path interferometer

CCOC(C)(C)C [2-ethoxy-2-methylpropane] + c1ccccc1
Conditions | mass density, 288.15 K [kg/m3] | mass density, 298.15 K [kg/m3] | mass density, 323.15 K [kg/m3] | speed of sound, 288.15 K [m/s] | speed of sound, 298.15 K [m/s] | speed of sound, 323.15 K [m/s]
x1 = 0.049 | 874.335 | 863.764 | 837.01 | 1327.2 | 1280 | 1165.5
x1 = 0.102 | 864.201 | 853.699 | 827.068 | 1308.3 | 1261.4 | 1147.2
x1 = 0.204 | 846.222 | 835.811 | 809.343 | 1274.8 | 1228.3 | 1114.7
x1 = 0.299 | 830.929 | 820.575 | 794.184 | 1245.6 | 1199.4 | 1086.3
x1 = 0.393 | 816.969 | 806.647 | 780.301 | 1219.1 | 1173 | 1060
x1 = 0.494 | 802.925 | 792.628 | 766.309 | 1192.1 | 1146.5 | 1034.2
x1 = 0.589 | 790.686 | 780.408 | 754.084 | 1168.6 | 1123.6 | 1011.7
x1 = 0.696 | 777.916 | 767.647 | 741.314 | 1143.5 | 1099 | 988.29
x1 = 0.799 | 766.357 | 756.096 | 729.753 | 1120.3 | 1075.7 | 965.1
x1 = 0.906 | 755 | 744.747 | 718.393 | 1097.6 | 1053.3 | 942.92
x1 = 0.953 | 750.242 | 739.991 | 713.647 | 1087.8 | 1044 | 933.45
x1 = 1 | 745.656 | 735.357 | 709.007 | 1078.9 | 1033.2 | 922.48

CCOC(C)(C)C [2-ethoxy-2-methylpropane] + CCc1ccccc1
Conditions | mass density, 288.15 K [kg/m3] | mass density, 298.15 K [kg/m3] | mass density, 323.15 K [kg/m3] | speed of sound, 288.15 K [m/s] | speed of sound, 298.15 K [m/s] | speed of sound, 323.15 K [m/s]
x1 = 0.062 | 862.801 | 854.066 | 831.864 | 1341.6 | 1298.5 | 1195.2
x1 = 0.122 | 855.221 | 846.39 | 823.917 | 1324.4 | 1281 | 1177.2
x1 = 0.239 | 840.448 | 831.434 | 808.496 | 1291.1 | 1247.3 | 1142.5
x1 = 0.353 | 826.071 | 816.917 | 793.606 | 1258.9 | 1214.8 | 1109
x1 = 0.455 | 813.347 | 804.045 | 780.291 | 1230.1 | 1185.7 | 1079
x1 = 0.556 | 800.809 | 791.351 | 767.168 | 1201.7 | 1157.1 | 1049.8
x1 = 0.653 | 788.72 | 779.094 | 754.45 | 1174.2 | 1129.3 | 1021.4
x1 = 0.746 | 777.039 | 767.306 | 742.327 | 1148.3 | 1103.2 | 994.59
x1 = 0.834 | 765.895 | 756.026 | 730.658 | 1123.2 | 1077.9 | 968.81
x1 = 0.918 | 755.524 | 745.492 | 719.646 | 1099.7 | 1054 | 944.36
x1 = 0.959 | 750.111 | 740.037 | 714.068 | 1088 | 1042.2 | 932.2
x1 = 1 | 744.955 | 734.806 | 708.642 | 1076.4 | 1031 | 920.73

CCOC(C)(C)C [2-ethoxy-2-methylpropane] + Cc1ccccc1
Conditions | mass density, 288.15 K [kg/m3] | mass density, 298.15 K [kg/m3] | mass density, 323.15 K [kg/m3] | speed of sound, 288.15 K [m/s] | speed of sound, 298.15 K [m/s] | speed of sound, 323.15 K [m/s]
x1 = 0.052 | 864.001 | 854.662 | 831.025 | 1332.1 | 1288.3 | 1181.6
x1 = 0.108 | 855.965 | 846.56 | 822.744 | 1315.2 | 1271.3 | 1164
x1 = 0.217 | 840.966 | 831.445 | 807.297 | 1282.6 | 1238.1 | 1130.6
x1 = 0.301 | 829.662 | 820.051 | 795.645 | 1258.9 | 1214.7 | 1106.5
x1 = 0.41 | 815.355 | 805.638 | 780.903 | 1228 | 1183.6 | 1075
x1 = 0.505 | 803.55 | 793.739 | 768.747 | 1202.7 | 1158.1 | 1049.3
x1 = 0.615 | 789.864 | 779.951 | 754.631 | 1173.5 | 1129.1 | 1019.7
x1 = 0.701 | 779.62 | 769.63 | 744.088 | 1151.5 | 1107 | 997.51
x1 = 0.805 | 767.503 | 757.422 | 731.601 | 1125.3 | 1080.5 | 970.75
x1 = 0.897 | 757.112 | 746.951 | 720.871 | 1102.8 | 1058.2 | 948.16
x1 = 0.95 | 751.062 | 740.859 | 714.65 | 1089.8 | 1045 | 934.78
x1 = 1 | 745.656 | 735.357 | 709.007 | 1078.9 | 1033.2 | 922.48

CCOC(C)(C)C [2-ethoxy-2-methylpropane] + CC(C)(C)O
Conditions | mass density, 303.15 K [kg/m3] | mass density, 313.15 K [kg/m3] | mass density, 323.15 K [kg/m3] | speed of sound, 303.15 K [m/s] | speed of sound, 313.15 K [m/s] | speed of sound, 323.15 K [m/s]
x1 = 0.06 | 770.981 | 760.486 | 749.635 | 1085.9 | 1043.4 | 1001.6
x1 = 0.093 | 768.859 | 758.385 | 747.565 | 1079.5 | 1037.4 | 996.19
x1 = 0.2 | 762.345 | 751.936 | 741.141 | 1062.9 | 1021.9 | 980.83
x1 = 0.298 | 757.005 | 746.63 | 735.846 | 1050.7 | 1010.1 | 969.12
x1 = 0.386 | 752.738 | 742.309 | 731.52 | 1041.5 | 1000.3 | 959.27
x1 = 0.488 | 748.226 | 737.777 | 726.96 | 1033.5 | 992.26 | 950.9
x1 = 0.632 | 742.556 | 732.028 | 721.169 | 1024.7 | 982.68 | 940.83
x1 = 0.685 | 740.622 | 730.077 | 719.198 | 1022.1 | 979.93 | 937.72
x1 = 0.796 | 736.85 | 726.255 | 715.369 | 1017.9 | 975.09 | 932.37
x1 = 0.896 | 733.592 | 722.99 | 712.15 | 1014.9 | 971.48 | 928.25
x1 = 0.949 | 731.862 | 721.29 | 710.507 | 1013.4 | 969.31 | 925.71
x1 = 1 | 730.186 | 719.687 | 708.996 | 1010.2 | 965.87 | 922.08

CCOC(C)(C)C [2-ethoxy-2-methylpropane] + CCO
Conditions | mass density, 288.15 K [kg/m3] | mass density, 298.15 K [kg/m3] | mass density, 323.15 K [kg/m3] | speed of sound, 288.15 K [m/s] | speed of sound, 298.15 K [m/s] | speed of sound, 323.15 K [m/s]
x1 = 0.049 | 790.26 | 781.555 | 759.223 | 1171.4 | 1135.6 | 1048.6
x1 = 0.097 | 786.997 | 778.154 | 755.418 | 1165.8 | 1128.9 | 1038.1
x1 = 0.198 | 780.646 | 771.547 | 748.104 | 1150.9 | 1112.5 | 1018.3
x1 = 0.303 | 774.648 | 765.324 | 741.204 | 1137.4 | 1097.5 | 999.82
x1 = 0.395 | 770.061 | 760.556 | 735.962 | 1127.4 | 1086.4 | 986.27
x1 = 0.504 | 765.017 | 755.325 | 730.194 | 1116.6 | 1074.6 | 971.7
x1 = 0.606 | 760.667 | 750.815 | 725.266 | 1108.4 | 1065.5 | 959.88
x1 = 0.691 | 757.429 | 747.458 | 721.666 | 1101.4 | 1058 | 950.98
x1 = 0.802 | 753.45 | 743.339 | 717.148 | 1094 | 1049.8 | 941.56
x1 = 0.895 | 749.87 | 739.659 | 713.326 | 1087.8 | 1043 | 933.37
x1 = 0.935 | 748.296 | 738.056 | 711.669 | 1084.8 | 1039.8 | 929.43
x1 = 1 | 745.656 | 735.357 | 709.007 | 1078.9 | 1033.2 | 922.48

CCOC(C)(C)C [2-ethoxy-2-methylpropane] + CC(C)CC(C)(C)C
Conditions | mass density, 288.15 K [kg/m3] | mass density, 298.15 K [kg/m3] | mass density, 323.15 K [kg/m3] | speed of sound, 288.15 K [m/s] | speed of sound, 298.15 K [m/s] | speed of sound, 323.15 K [m/s]
x1 = 0.047 | 697.781 | 689.477 | 668.28 | 1121.2 | 1078.7 | 975.15
x1 = 0.1 | 699.904 | 691.5 | 670.054 | 1118.3 | 1075.5 | 971.5
x1 = 0.204 | 704.01 | 695.429 | 673.45 | 1111.9 | 1068.9 | 964.23
x1 = 0.305 | 708.284 | 699.51 | 677.1 | 1106.8 | 1063.8 | 958.38
x1 = 0.4 | 712.599 | 703.649 | 680.717 | 1101.7 | 1058.5 | 952.41
x1 = 0.508 | 717.689 | 708.525 | 685.059 | 1096.5 | 1053.1 | 946.33
x1 = 0.596 | 722.093 | 712.737 | 688.798 | 1092.5 | 1048.3 | 941.25
x1 = 0.699 | 727.55 | 717.974 | 693.436 | 1088.3 | 1043.8 | 935.64
x1 = 0.788 | 732.615 | 722.843 | 697.73 | 1084.9 | 1040.1 | 931
x1 = 0.902 | 739.579 | 729.56 | 703.808 | 1081.5 | 1036.6 | 927.2
x1 = 0.949 | 742.53 | 732.405 | 706.371 | 1080.5 | 1035.4 | 925.22
x1 = 1 | 745.656 | 735.357 | 709.007 | 1078.9 | 1033.2 | 922.48

Reference: the NIST ThermoML archive (doi:10.1016/j.jct.2007.05.005)
